Reference: patent publication US10048278B2, “Screening for neurotoxic amino acid associated with neurological disorders” (priority 2003, dated 2018)

Tests used:
[1] = BMAA in dried skin of flying fox museum specimens (HPLC); conditions: Pteropus mariannus dried skin
Description: BMAA levels were measured in tissues of Cycas micronesica Hill from Guam, and tissues of Pteropus mariannus mariannus, an indigenous flying fox (bat) of Guam. Because Pteropus mariannus mariannus is now highly endangered, BMAA levels were measured in skin tissue from museum specimens of three flying foxes that were collected five decades ago in Guam, preserved as dried study skins, and deposited at the Museum of Vertebrate Zoology (MVZ), at the University of California, Berkeley.
BMAA was detected using high performance liquid chromatography (HPLC), and results were confirmed with thin layer chromatography (TLC) and gas chromatography-mass spectroscopy (GC-MS). For BMAA analysis, free amino acid extracts of flying fox and cycad tissues were prepared. Tissue samples were rehydrated for 30 minutes with water or trichloroacetic acid (mean tissue prep 80 mg/ml±32 SD), macerated, and filtered. Extracts were derivatized with 6-aminoquinolyl-N-hydrozysuccinimidyl carbamate (ACQ) following standardized protocols. […] The concentration of BMAA in samples was determined by the fluorescent tag using a Waters 2487 Dual-1 Fluorescence Detector, with excitation at 250 nm and emission at 395 nm. Detection of the ACQ-derivatized BMAA was dependent on concentration and quantification was accomplished with comparison of equal amounts of BMAA and a norleucine internal standard (representing a single mid-range concentration) resulting in a mean response of 51.2%. […] The limits of detection (LOD, defined as the lowest concentration of an analyte in a sample that can be detected though not necessarily quantitated) and limits of quantification (LOQ, the concentration within the linear range of the calibration curve relating absorbance to concentration) were determined by a concentration gradient of an authenticated standard (Sigma Chemical Co., St. Louis, Mo.). […] For data interpretations, all sample analyses were quantified within the range of the LOQ or were reported as not detected (ND) (Table 1). […]

[2] = Free and protein-associated BMAA in superior frontal gyrus tissue of patients; design: species or system human
Description: Tissues were provided by Dr. Patrick McGeer of the University of British Columbia, Vancouver, B.C., Canada. Autopsied tissues from patients were fixed in paraformaldehyde prior to storage in 15% buffered sucrose maintenance solution, where the time interval between death and autopsy varied from 4 hours to 5 days. Familial relationships, clinical histories, and histochemical characteristics of the Chamorro patients had been disclosed previously (McGeer et al, 1997, Neurology 49, 400-409). In addition, autopsied tissued from Canadian patients was provided, including two samples from two (2) Canadian patients who were clinically diagnosed with Alzheimer's disease prior to death, and thirteen (13) Canadian patients who died of natural causes other than progressive neurodegenerative diseases.
Tissues were homogenized twice in 0.1 N trichloroacetic acid and centrifuged at 15,800×g for 3 min to precipitate proteins and extract free amino acids. Protein-bound BMAA was released by hydrolysis of the precipitate at 110° C. in constant boiling 6N HCl for 24 hours. Particulate matter was removed from a 500 μl aliquot by ultrafiltration (Ultrafree-MC, Millipore Corp.) at 15,800×g and the resulting extract was freeze-dried. Amino acids were resuspended in 20 mM HCl, applied to a Sep-Pac C18 cartridge equilibrated with sequential washes of 100% methanol, 50% methanol in water, and a gradient of borate buffer:acetronitrile (0.5M borate:0-60% CH3CN) at 20% increments. BMAA in sample extracts was derivatized with 6-aminoquinolyl-N-hydroxysuccinimidyl carbamate following standardized protocols (Banack et al., 2003, Neurology 61: 387-389). Amino acids were quantified via HPLC separation as described above (Example 3). The presence of BMAA in the samples, as well as the identity and purity of the BMAA peak in the HPLC fractions, was verified by liquid chromatography mass spectroscopy (LC-MS) using an Agilent 1100 HPLC coupled with a variable wavelength diode array detector (DAD) and an SL single quadrapole MS with an atmospheric pressure ionization source (API) using the electrospray ionization interface (ESI). Compounds were separated on a Waters SymetryShield RP 18 column heated at 30° C. with a linear gradient elution of CH3CN (10 40%) in water. Nitrogen gas was purified and supplied to the ESI interface with a nebulizing pressure of 35 psi and two distinct modes were used for detection of compounds within the MS. The DAD detected compounds at 254 nm with a full spectral scan from 200 600 nm and 0.5 nm resolution within a semi micro flow cell. The initial signal was determined in positive scan mode with a 100 600 Da range at 50V fragmentor voltage. BMAA was identified using the extracted ion chromatogram in which the molecular ion peak was confirmed.

[3] = rats; cited from earlier work
[4] = Banack & Cox, 2003; cited from earlier work
cyanobacterial symbiont = assay: Effect of amino acid supplementation of BG-11 medium on cyanobacterial growth; type: cell-based, Nostoc; conditions: BG-11 medium supplemented with glutamate or glutamine (0, 126, or 250 μmol/L)
Excerpt: Cyanobacterial symbionts were isolated from infected coralloid roots of Cycas micronesica Hill, harvested from three accessioned specimens (vouchered specimens of known provenance) growing in the National Tropical Botanical Garden, Kalaheo, Kauai, and grown as an axenic culture with repeated passages. For analysis of cycad root tissues infected with cyanobacterial symbiots, soil-borne bacteria were removed from root tissues of Cycas micronesica Hill by surface-sterilizing roots immersion in a solution of 70% ethanol for 3 min, followed by a 30 min immersion in 1.6% sodium hypochlorite with 2 drops of surfactant and 3 sequential washes with sterile deionized water. Surface-sterilized root explants (1-2 cm long) were excised and cultured onto standard BG-11 medium, pH 7.1 solidified with gellam gum (Sigma). Root explant cultures were incubated in a controlled environment room with a 16 h photoperiod at a light intensity of 35-45 μmole/m^2/s and temperatures of 25-30° C. After 7-10 days of culture, proliferation of colonies of the cyanobacterial symbiont of the root explants was clearly visible. Serial subculture of individual cyanobacterial colonies ensured the absence of residual BMAA from root tissue. […] Histological verification of culture purity was conducted prior to chemical analyses. […]

[5] = superior frontal gyrus, Alzheimer's, Canadian (first patient)
[6] = superior frontal gyrus, Alzheimer's, Canadian (second patient)
[7] = superior frontal gyrus, PDC (Lytico-bodig), Chamorro, donor one

| SMILES | Concentration ([1]; specimen 114606) | Concentration ([1]; specimen 114607) | Concentration ([1]; specimen 114609) | quantity of protein-bound BMAA compared to free BMAA ([2]; brain tissue, all other patients) | BMAA recovered from the protein-bound fraction ([2]; brain tissue, one Lytico-Bodig (ALS-PDC) patient with no unbound BMAA) | Protein-bound BMAA ([2]; frontal cortex tissue, all six Chamorro patients who had died from ALS-PDC) | Free BMAA ([2]; frontal cortex tissue, five of six Chamorro patients who had died from ALS-PDC) | Free BMAA [2, 5] | Protein-bound BMAA [2, 5] | Free BMAA [2, 6] | Protein-bound BMAA [2, 6] | Free BMAA [2, 7] | Protein-bound BMAA [2, 7] | BMAA level in brain tissue ([2]; thirteen Canadian patients without Alzheimer's diagnosis who died of other causes) | injected BMAA not eliminated from either urine or feces [3] | stability in dried mammal specimens of great age [4] | cyanobacterial growth (cyanobacterial symbiont) |
| --- | --- | --- | --- | --- | --- | --- | --- | --- | --- | --- | --- | --- | --- | --- | --- | --- | --- |
| CNC[C@H](N)C(=O)O [BMAA, β-N-methylamino-L-alanine] | 1,879 μg/g | 7,502 μg/g | 1,287 μg/g | 60-130 fold | more than 1 mg/g | 149 to 1190 µg/g | 3 to 10 µg/g | 3.4 µg/g | 220 µg/g | 9.7 µg/g | 264 µg/g | 3.3 µg/g | 433 µg/g | did not have detectable levels | 90% | stable |  |
| N[C@@H](CCC(=O)O)C(=O)O [GLU, glutamic acid] |  |  |  |  |  |  |  |  |  |  |  |  |  |  |  |  | increased two-fold |
| NC(=O)CC[C@H](N)C(=O)O [glutamine] |  |  |  |  |  |  |  |  |  |  |  |  |  |  |  |  | increased two-fold |
